Blank lines part the entries; values can stand above or below the compound they belong to.
Tests used:
[1] = Dimensions (size, PDI) of DNPs co-assembled from IAJDs and Luc-mRNA by DLS; format: physicochemical; conditions: CIAJD 4 mg/mL
Experimental: Dynamic Light Scattering (DLS) for the DNPs was performed in buffer with a Malvern Instruments particle sizer (Zetasizer Nano S, Malvern Instruments, UK) equipped with 4 mW He—Ne laser 633 nm and avalanche photodiode positioned at […] to the beam and temperature-controlled cuvette holder. Instrument parameters were determined automatically along with measurement times.
Formulation of DNPs Containing mRNA-Luc: IAJDs were dissolved in ethanol with various initial concentrations (5-160 mg/mL). Nucleoside-modified mRNA encoding firefly luciferase (mRNA-Luc) was dissolved in water with various initial concentrations (1-4 mg/mL). 12.5 μL of mRNA solution was placed into a clean RNAs free eppendorf (1.5 mL) and mixed with 463 μL of citrate buffer (10 mM, pH 3.0)/acetate buffer (10 mM). For encapsulation of mRNA into IAJDs, 25 μL of IAJDs of the ethanol stock solution was rapidly injected into mRNA solution in citrate or acetate buffer followed by vortex for 5 seconds.
(§1) Dynamic Light Scattering (DLS) for the sizes and polydispersities of DNPs was performed on a Malvern Instruments particle sizer (Zetasizer Nano S, Malvern Instruments, UK) equipped with 4 mW He—Ne laser 633 nm and avalanche photodiode positioned at 1750 to the beam and temperature-controlled cuvette holder. Instrument parameters were determined automatically along with measurement times. Sample solution (0.4 mL) was placed in a semi-micro cuvette (1.6 mL, polystyrene, 10×10×45 mm, manufactured by Greiner Bio-One) and the measurements were performed at 23° C.
Formulation of DNPs obtained by co-assembly of IAJDs and Luc-mRNA was performed as follows. IAJDs were dissolved in ethanol with an initial concentration of 80 mg/mL. Nucleoside-modified mRNA encoding firefly luciferase (Luc-mRNA) was dissolved in UltraPure DNase/RNase-free distilled water with an initial concentration of 4.0 mg/mL. 12.5 μL of Luc-mRNA solution was placed into a clean RNAs free eppendorf (1.5 mL) and 463 μL acetate buffer (10 mM, pH 4.0) was added. Then, 25 μL of IAJD in the ethanol stock solution was rapidly injected into the Luc-mRNA solution in acetate buffer followed by vortex for 5 seconds.
as §1, with “dimensions (sizes” for “sizes”, “polydispersities)” for “polydispersities”, “175°” for “1750”, “set up” for “determined”, “(c.a. 0.4” for “(0.4”, “mm,” for “mm, manufactured by”
Formulation of DNPs Co-assembled from IAJDs and Luc-mRNA: nucleoside-modified mRNA encoding firefly luciferase (Luc-mRNA) was dissolved in UltraPure DNase/RNase-free distilled water with an initial concentration of 4.0 mg/mL. IAJD molecules were dissolved in ethanol with an initial concentration of 80 mg/mL. 12.5 μL of Luc-mRNA solution was taken and placed into a clean RNAs free eppendorf (1.5 mL). Then 463 μL of acetate buffer (10 mM, pH 4.0) was added. Afterwards, 25 μL of IAJD in the ethanol stock solution was taken and rapidly injected into the above Luc-mRNA solution in acetate buffer followed by vortex for 5 seconds.

[2] = tested on: HEK293T cells; test: In vitro Luc-mRNA transfection, luciferase luminescence expression in HEK293T cells; format: cell-based, human; design: unit not given here; conditions: CIAJD 4 mg/mL, HEK293T, 125 ng/well
Experimental: In Vitro Transfection Activity of DNPs in Human Embrionic Kidney (HEK) 293T Cells: HEK293T cells were seeded into 96-well plates (20,000 cells/well/200 μL) and cultured for 24 h at 37° C. in 5% CO2 complete cell culture media. Screening experiments were performed with nonoptimized DNPs containing naked nucleoside-modified mRNA (Karikó, et al., Immunity 2005, 23, 165-175; Pardi, et al., Methods Mol. Biol. 2013, 969, 29-42), of molar mass 664,341 encoding firefly luciferase (mRNA-Luc). A constant concentration of mRNA-Luc of 125 ng/well was used. The transIT (TransIT-mRNA transfection Kit from Mirus Bio) and MC3-based LNPs (MC3: DLin-MC3-DMA, which is the FDA approved LNP for mRNA delivery) were used as positive controls for cell transfection at a concentration of mRNA-Luc of 125 ng/well, identical to that of the tested DNPs. Subsequently cells were cultured for 24 h, the medium was aspirated under reduced pressure by a glass pipette and cells were lysed with 30 μL/well of cell culture lysis reagent (Promega). The luminescence intensity corresponding to the luciferase protein expressed was characterized and analyzed.
In vitro mRNA Delivery: Human embryonic kidney (HEK) 293T cells (American Type Culture Collection) were cultured in Dulbecco's modified Eagle's medium (DMEM) supplemented with 10% inactivated fetal bovine serum (FBS) (Gemini Bio-Products), 2 mM L-glutamine and 100 U/mL penicillin/streptomycin (Life Technologies) (complete medium). For in vitro screening experiments, HEK293T cells were seeded into 96-well plates (20,000 cells/well/200 μL) and cultured for 24 h in at 37° C. and 5% CO2 in complete media. Cell were transfected with IAJDs with encapsulated naked nucleoside-modified mRNA encoding firefly luciferase (mRNA-Luc) with fixed concentration of mRNA-Luc, 125 ng per well. The transIT (TransIT®-mRNA Transfection Kit, Mirus Bio) was used as a positive control for cell transfection, accordingly per manufacturer protocol and added to cells at the concentration of mRNA-Luc, 125 ng per well, the same as for tested particles. Cells were further cultured for 24 h, then medium was aspirated, and cells were lysed with 30 μL/well of cell culture lysis reagent (Promega). For the characterization of luminescence intensity, 2.5 μL of the lysed cells was mixed with 10 μL of luciferase assay substrate and luminescence was analyzed using a MiniLumat LB 9506 luminometer (Berthold/EG&G; Wallac).
Luminescence characterization for in vitro transfection experiments was performed by determining the luminescence intensity for in vitro Luc-mRNA transfection experiments using a MiniLumat LB 9506 luminometer (Berthold/EG&G; Wallac).
For in vitro Luc-mRNA transfection screening experiments, human embryonic kidney 293 cells (HEK 293) were seeded into 96-well plates (20,000 cells/well/200 μL) and cultured for 18-20 hours at 37° C., 5% CO2 in complete Dulbecco's modified Eagle's medium (DMEM) supplemented with 2 mM L-glutamine (Life Technologies), 100 U/mL penicillin/streptomycin (Invitrogen) and 10% fetal bovine serum (FBS, Gemini Bio-Products). Cells were transfected with DNPs with encapsulated naked nucleoside-modified mRNA encoding firefly luciferase (Luc-mRNA) at constant concentration of Luc-mRNA, 125 ng per well. Luc-mRNA complexed with TransIT (TransIT®-mRNA Transfection Kit, Mirus Bio) or encapsulated in FDA approved MC3-based LNPs were used as positive controls for cell transfection, at the concentration of Luc-mRNA of 125 ng per well, the same as for tested DNPs. After transfection cells were further cultured at 37° C., 5% CO2 for 18-20 hours, then medium was aspirated and cells were lysed with luciferase cell culture lysis reagent (30 μL/well) (Promega, Madison, WI). […]

[3] = pKa measurements of individual IAJD molecules by titration; format: physicochemical; conditions: individual IAJD molecule
Experimental: pKa measurements of individual IAJD Molecules was performed as follows. IAJD Molecules were first dissolved in ethanol (Sat. with NaCl) at a concentration of 1.5 mg/mL and the solution volume was 3 mL.
Then 0.1 M HCl solution was added to the above ethanol solution with an increment of 7.5 μL. The resulting pH after each addition of HCl solution was measured by an Thermo Scientific Orion Star A121 meter with Thermo Scientific Orion 8220BNWP pH probe. pKa was determined using the half equivalence point titration.

[4] = Acetate buffer 10 mM pH 4.0, CLuc-mRNA 0.05 mg/mL
[5] = Acetate buffer 10 mM pH 5.2, CLuc-mRNA 0.10 mg/mL
[6] = Citrate buffer 10 mM pH 3.0, CLuc-mRNA 0.05 mg/mL

PDI [1, 4]: 0.330
Size (d, nm) [1, 4]: 58 nm
PDI [1, 5]: 0.284
Size (d, nm) [1, 5]: 178 nm
PDI [1, 6]: 0.460
Size (d, nm) [1, 6]: 61 nm
Compound: (3,5)-12G2-BMPA-GC-(achiral)-(3,4,5)-3EO-G1 [Compound 4]
Luminescence [2, 4]: 3,283
Luminescence [2, 5]: 1,613
Luminescence [2, 6]: 2,063

Avg pKa ([3]; average of pKa 1-3): 6.06
pKa 1 ([3]; titration, measurement 1): 6.06
Compound: CCCCCCCCCCCCOc1cc(OCCCCCCCCCCCC)cc(C(=O)OCC(COC(=O)c2cc(OCCCCCCCCCCCC)cc(OCCCCCCCCCCCC)c2)(COC(=O)c2cc(OCCOCCOCCOC(=O)CCCN(C)C)c(OCCOCCOCCOC(=O)CCCN(C)C)c(OCCOCCOCCOC(=O)CCCN(C)C)c2)NC(=O)c2cc(OCCOCCOCCOC)c(OCCOCCOCCOC)c(OCCOCCOCCOC)c2)c1 [IAJD 42]

pKa ([3]; ethanol saturated with NaCl, titrated with 0.1 M aqueous HCl, Table 15, titration): 6.37
Compound: CCCCCCCCCCCCOc1cc(COC(=O)CCCN2CCN(C)CC2)cc(OCCCCCCCCCCCC)c1 [IAJD 66, 3,5-Bis(dodecyloxy)benzyl 4-(4-methylpiperazin-1-yl)butanoate]
